This assay addresses IL-17RA/IL17RC dimerization induced by IL-17A (Homo sapiens, UniProt Q16552). The assay can be described thus: IL-17RA/IL17RC dimerization assay in response to IL-17A (PathHunter Cytokine Receptor Assay). It counts as cell-based. Put shortly:
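Receptor dimerization was read as chemiluminescence from complemented β-galactosidase after IL-17A at EC80 concentration for 6–16 h at 37 °C. Peptides were added 60 min before agonist, at 37 °C or room temperature, with 1% vehicle. Percent inhibition used the EC80-stimulated and vehicle wells as references.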

Where [1] appears, read: IL-17A at EC80, read-out: IC50 in IL-17RA/IL7RC dimerization assay.

Read-outs that look alike come from different tables or passages of the source. Residues, ends and D or L forms follow the SMILES beside them.

Chain of IL-17RA/IL17RC dimerization induced by IL-17A (Q16552 24-155): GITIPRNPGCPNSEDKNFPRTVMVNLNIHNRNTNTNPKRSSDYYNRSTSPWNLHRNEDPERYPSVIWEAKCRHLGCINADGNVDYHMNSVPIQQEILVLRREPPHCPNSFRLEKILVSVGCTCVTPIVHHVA

In the case of `CC[C@H](C)[C@H](NC(C)=O)C(=O)N[C@@H](Cc1c[nH]cn1)C(=O)N[C@H](C(=O)N[C@H](C(=O)N[C@H](C(=O)N1CCC[C@H]1C(=O)N[C@@H](C)C(=O)N[C@@H](CCC(N)=O)C(=O)N[C@@H](CC(C)C)C(=O)N[C@@H](Cc1c[nH]c2ccccc12)C(=O)N[C@@H](CC(=O)O)C(=O)N[C@@H](Cc1c[nH]c2ccccc12)C(=O)N[C@H](C(=O)N[C@@H](CC(N)=O)C(=O)N[C@@H](CCCCN)C(N)=O)[C@@H](C)CC)[C@@H](C)CC)[C@@H](C)O)C(C)C` [SEQ ID NO: 199] (Ac-IHVTIPAQLWDWINK-NH2), the IC50 under setting [1] is under 10 µM. As for `CC[C@H](C)[C@H](NC(C)=O)C(=O)N[C@@H](Cc1c[nH]cn1)C(=O)N[C@H](C(=O)N[C@H](C(=O)N[C@H](C(=O)N1CCC[C@H]1C(=O)N[C@@H](C)C(=O)N[C@@H](Cc1ccc(O)cc1)C(=O)N[C@@H](CC(C)C)C(=O)N[C@@H](Cc1c[nH]c2ccccc12)C(=O)N[C@@H](CC(=O)O)C(=O)N[C@@H](Cc1c[nH]c2ccccc12)C(=O)N[C@H](C(=O)N[C@@H](CC(N)=O)C(=O)N[C@@H](CCCCN)C(N)=O)[C@@H](C)CC)[C@@H](C)CC)[C@@H](C)O)C(C)C` [SEQ ID NO: 200] (Ac-IHVTIPAYLWDWINK-NH2), the IC50 under setting [1] is under 10 µM. With `CC[C@H](C)[C@H](NC(C)=O)C(=O)N[C@@H](Cc1c[nH]cn1)C(=O)N[C@H](C(=O)N[C@H](C(=O)N[C@H](C(=O)N1CCC[C@H]1C(=O)N[C@@H](C)C(=O)N[C@@H](CC(=O)O)C(=O)N[C@@H](C)C(=O)N[C@@H](Cc1c[nH]c2ccccc12)C(=O)N[C@@H](CC(=O)O)C(=O)N[C@@H](Cc1c[nH]c2ccccc12)C(=O)N[C@H](C(=O)N[C@@H](CC(N)=O)C(=O)N[C@@H](CCCCN)C(N)=O)[C@@H](C)CC)[C@@H](C)CC)[C@@H](C)O)C(C)C` [SEQ ID NO: 201] (Ac-IHVTIPADAWDWINK-NH2), under setting [1], the IC50 was under 10 µM. With `CC[C@H](C)[C@H](NC(C)=O)C(=O)N[C@@H](Cc1c[nH]cn1)C(=O)N[C@H](C(=O)N[C@H](C(=O)N[C@H](C(=O)N1CCC[C@H]1C(=O)N[C@@H](C)C(=O)N[C@@H](CC(=O)O)C(=O)NCC(=O)N[C@@H](Cc1c[nH]c2ccccc12)C(=O)N[C@@H](CC(=O)O)C(=O)N[C@@H](Cc1c[nH]c2ccccc12)C(=O)N[C@H](C(=O)N[C@@H](CC(N)=O)C(=O)N[C@@H](CCCCN)C(N)=O)[C@@H](C)CC)[C@@H](C)CC)[C@@H](C)O)C(C)C` [SEQ ID NO: 202] (Ac-IHVTIPADGWDWINK-NH2), the IC50 under setting [1] was under 10 µM. In the case of `CC[C@H](C)[C@H](NC(C)=O)C(=O)N[C@@H](Cc1c[nH]cn1)C(=O)N[C@H](C(=O)N[C@H](C(=O)N[C@H](C(=O)N1CCC[C@H]1C(=O)N[C@@H](C)C(=O)N[C@@H](CC(=O)O)C(=O)N1CCC[C@H]1C(=O)N[C@@H](Cc1c[nH]c2ccccc12)C(=O)N[C@@H](CC(=O)O)C(=O)N[C@@H](Cc1c[nH]c2ccccc12)C(=O)N[C@H](C(=O)N[C@@H](CC(N)=O)C(=O)N[C@@H](CCCCN)C(N)=O)[C@@H](C)CC)[C@@H](C)CC)[C@@H](C)O)C(C)C` [SEQ ID NO: 203] (Ac-IHVTIPADPWDWINK-NH2), under setting [1], the IC50 is under 10 µM. For the compound `CC[C@H](C)[C@H](NC(C)=O)C(=O)N[C@@H](Cc1c[nH]cn1)C(=O)N[C@H](C(=O)N[C@H](C(=O)N[C@H](C(=O)N1CCC[C@H]1C(=O)N[C@@H](C)C(=O)N[C@@H](CC(=O)O)C(=O)N[C@H](C(=O)N[C@@H](Cc1c[nH]c2ccccc12)C(=O)N[C@@H](CC(=O)O)C(=O)N[C@@H](Cc1c[nH]c2ccccc12)C(=O)N[C@H](C(=O)N[C@@H](CC(N)=O)C(=O)N[C@@H](CCCCN)C(N)=O)[C@@H](C)CC)C(C)C)[C@@H](C)CC)[C@@H](C)O)C(C)C` [SEQ ID NO: 204] (Ac-IHVTIPADVWDWINK-NH2), the IC50 under setting [1] was under 10 µM. In turn, `CC[C@H](C)[C@H](NC(C)=O)C(=O)N[C@@H](Cc1c[nH]cn1)C(=O)N[C@H](C(=O)N[C@H](C(=O)N[C@H](C(=O)N1CCC[C@H]1C(=O)N[C@@H](C)C(=O)N[C@@H](CC(=O)O)C(=O)N[C@H](C(=O)N[C@@H](Cc1c[nH]c2ccccc12)C(=O)N[C@@H](CC(=O)O)C(=O)N[C@@H](Cc1c[nH]c2ccccc12)C(=O)N[C@H](C(=O)N[C@@H](CC(N)=O)C(=O)N[C@@H](CCCCN)C(N)=O)[C@@H](C)CC)[C@@H](C)CC)[C@@H](C)CC)[C@@H](C)O)C(C)C` [SEQ ID NO: 205] (Ac-IHVTIPADIWDWINK-NH2) showed an IC50 of under 10 µM. Take `CC[C@H](C)[C@H](NC(C)=O)C(=O)N[C@@H](Cc1c[nH]cn1)C(=O)N[C@H](C(=O)N[C@H](C(=O)N[C@H](C(=O)N1CCC[C@H]1C(=O)N[C@@H](C)C(=O)N[C@@H](CC(=O)O)C(=O)N[C@@H](CC(C)C)C(=O)N[C@@H](Cc1c[nH]cn1)C(=O)N[C@@H](CC(=O)O)C(=O)N[C@@H](Cc1c[nH]c2ccccc12)C(=O)N[C@H](C(=O)N[C@@H](CC(N)=O)C(=O)N[C@@H](CCCCN)C(N)=O)[C@@H](C)CC)[C@@H](C)CC)[C@@H](C)O)C(C)C` [SEQ ID NO: 206] (Ac-IHVTIPADLHDWINK-NH2): the IC50 under setting [1] was under 10 µM.

As to `CC[C@H](C)[C@H](NC(C)=O)C(=O)N[C@@H](Cc1c[nH]cn1)C(=O)N[C@H](C(=O)N[C@H](C(=O)N[C@H](C(=O)N1CCC[C@H]1C(=O)N[C@@H](C)C(=O)N[C@@H](CC(=O)O)C(=O)N[C@@H](CC(C)C)C(=O)N[C@@H](Cc1ccccc1)C(=O)N[C@@H](CC(=O)O)C(=O)N[C@@H](Cc1c[nH]c2ccccc12)C(=O)N[C@H](C(=O)N[C@@H](CC(N)=O)C(=O)N[C@@H](CCCCN)C(N)=O)[C@@H](C)CC)[C@@H](C)CC)[C@@H](C)O)C(C)C` [SEQ ID NO: 207] (Ac-IHVTIPADLFDWINK-NH2), the IC50 under setting [1] was under 10 µM. Same read-out and setting: in the case of `CC[C@H](C)[C@H](NC(C)=O)C(=O)N[C@@H](Cc1c[nH]cn1)C(=O)N[C@H](C(=O)N[C@H](C(=O)N[C@H](C(=O)N1CCC[C@H]1C(=O)N[C@@H](C)C(=O)N[C@@H](CC(=O)O)C(=O)N[C@@H](CC(C)C)C(=O)N[C@@H](Cc1c[nH]c2ccccc12)C(=O)N[C@@H](CC(N)=O)C(=O)N[C@@H](Cc1c[nH]c2ccccc12)C(=O)N[C@H](C(=O)N[C@@H](CC(N)=O)C(=O)N[C@@H](CCCCN)C(N)=O)[C@@H](C)CC)[C@@H](C)CC)[C@@H](C)O)C(C)C` [SEQ ID NO: 208] (Ac-IHVTIPADLWNWINK-NH2) it was under 10 µM.

Regarding `CC[C@H](C)[C@H](NC(C)=O)C(=O)N[C@@H](Cc1c[nH]cn1)C(=O)N[C@H](C(=O)N[C@H](C(=O)N[C@H](C(=O)N1CCC[C@H]1C(=O)N[C@@H](C)C(=O)N[C@@H](CC(=O)O)C(=O)N[C@@H](CC(C)C)C(=O)N[C@@H](Cc1c[nH]c2ccccc12)C(=O)N[C@@H](CC(=O)O)C(=O)N[C@@H](Cc1c[nH]cn1)C(=O)N[C@H](C(=O)N[C@@H](CC(N)=O)C(=O)N[C@@H](CCCCN)C(N)=O)[C@@H](C)CC)[C@@H](C)CC)[C@@H](C)O)C(C)C` [SEQ ID NO: 209] (Ac-IHVTIPADLWDHINK-NH2), the IC50 under setting [1] was under 10 µM. Turning to `CC[C@H](C)[C@H](NC(C)=O)C(=O)N[C@@H](Cc1c[nH]cn1)C(=O)N[C@H](C(=O)N[C@H](C(=O)N[C@H](C(=O)N1CCC[C@H]1C(=O)N[C@@H](C)C(=O)N[C@@H](CC(=O)O)C(=O)N[C@@H](CC(C)C)C(=O)N[C@@H](Cc1c[nH]c2ccccc12)C(=O)N[C@@H](CC(=O)O)C(=O)N[C@@H](Cc1ccccc1)C(=O)N[C@H](C(=O)N[C@@H](CC(N)=O)C(=O)N[C@@H](CCCCN)C(N)=O)[C@@H](C)CC)[C@@H](C)CC)[C@@H](C)O)C(C)C` [SEQ ID NO: 210] (Ac-IHVTIPADLWDFINK-NH2), the IC50 under setting [1] is under 10 µM. Still for that read-out and setting: to `CC[C@H](C)[C@H](NC(C)=O)C(=O)N[C@@H](Cc1c[nH]cn1)C(=O)N[C@H](C(=O)N[C@H](C(=O)N[C@H](C(=O)N1CCC[C@H]1C(=O)N[C@@H](C)C(=O)N[C@@H](CC(=O)O)C(=O)N[C@@H](CC(C)C)C(=O)N[C@@H](Cc1c[nH]c2ccccc12)C(=O)N[C@@H](CC(=O)O)C(=O)N[C@@H](Cc1ccc(O)cc1)C(=O)N[C@H](C(=O)N[C@@H](CC(N)=O)C(=O)N[C@@H](CCCCN)C(N)=O)[C@@H](C)CC)[C@@H](C)CC)[C@@H](C)O)C(C)C` [SEQ ID NO: 211] (Ac-IHVTIPADLWDYINK-NH2) belongs under 10 µM; to `CC[C@H](C)[C@H](NC(C)=O)C(=O)N[C@@H](Cc1c[nH]cn1)C(=O)N[C@H](C(=O)N[C@H](C(=O)N[C@H](C(=O)N1CCC[C@H]1C(=O)N[C@@H](C)C(=O)N[C@@H](CC(=O)O)C(=O)N[C@@H](CC(C)C)C(=O)N[C@@H](Cc1c[nH]c2ccccc12)C(=O)N[C@@H](CC(=O)O)C(=O)N[C@@H](Cc1c[nH]c2ccccc12)C(=O)N[C@@H](CCC(=O)O)C(=O)N[C@@H](CC(N)=O)C(=O)N[C@@H](CCCCN)C(N)=O)[C@@H](C)CC)[C@@H](C)O)C(C)C` [SEQ ID NO: 212] (Ac-IHVTIPADLWDWENK-NH2), under 10 µM.

On to `CC[C@H](C)[C@H](NC(C)=O)C(=O)N[C@@H](Cc1c[nH]cn1)C(=O)N[C@H](C(=O)N[C@H](C(=O)N[C@H](C(=O)N1CCC[C@H]1C(=O)N[C@@H](C)C(=O)N[C@@H](CC(=O)O)C(=O)N[C@@H](CC(C)C)C(=O)N[C@@H](Cc1c[nH]c2ccccc12)C(=O)N[C@@H](CC(=O)O)C(=O)N[C@@H](Cc1c[nH]c2ccccc12)C(=O)N[C@@H](CCCCN)C(=O)N[C@@H](CC(N)=O)C(=O)N[C@@H](CCCCN)C(N)=O)[C@@H](C)CC)[C@@H](C)O)C(C)C` [SEQ ID NO: 213] (Ac-IHVTIPADLWDWKNK-NH2), for which the IC50 under setting [1] is under 10 µM. The same measure, in the same setting: in the case of `CC[C@H](C)[C@H](NC(C)=O)C(=O)N[C@@H](Cc1c[nH]cn1)C(=O)N[C@H](C(=O)N[C@H](C(=O)N[C@H](C(=O)N1CCC[C@H]1C(=O)N[C@@H](C)C(=O)N[C@@H](CC(=O)O)C(=O)N[C@@H](CC(C)C)C(=O)N[C@@H](Cc1c[nH]c2ccccc12)C(=O)N[C@@H](CC(=O)O)C(=O)N[C@@H](Cc1c[nH]c2ccccc12)C(=O)N[C@@H](C)C(=O)N[C@@H](CC(N)=O)C(=O)N[C@@H](CCCCN)C(N)=O)[C@@H](C)CC)[C@@H](C)O)C(C)C` [SEQ ID NO: 214] (Ac-IHVTIPADLWDWANK-NH2) it was under 10 µM.
